Test results as given in US10512265B2, “Pesticidally active heterocyclic derivatives with sulphur containing substituents” (Syngenta Participations AG, priority 2015, dated 2019).

How the values were obtained:
[1] = test system: Plutella xylostella (diamond back moth); assay: Example B3: activity against Plutella xylostella, treated artificial diet; assay type: in vivo; conditions: 120 h, application rate 200 ppm, L2 larvae, 5 days after infestation, read-out: effect in at least one of the two categories (mortality or growth inhibition)
Protocol: Example B3: Activity Against Plutella xylostella (Diamond Back Moth)
(§1) 24-well microtiter plates with artificial diet were treated with aqueous test solutions prepared from 10′000 ppm DMSO stock solutions by pipetting. After drying, the plates were infested with L2 larvae (10 to 15 per well). The samples were assessed for mortality and growth inhibition in comparison to untreated samples 5 days after infestation.

[2] = test system: Frankliniella occidentalis (western flower thrips); assay: Example B7: activity against Frankliniella occidentalis, sprayed sunflower leaf discs; assay type: in vivo; conditions: foliar, 168 h, application rate 200 ppm, population of mixed ages, 7 days after infestation
Protocol: Example B7: Activity Against Frankliniella occidentalis (Western Flower Thrips)
Sunflower leaf discs were placed on agar in 24-well microtiter plates and sprayed with aqueous test solutions prepared from […] stock solutions. After drying the leaf discs were infested with a Frankliniella population of mixed ages. The samples were assessed for mortality 7 days after infestation.

[3] = test system: Spodoptera littoralis (Egyptian cotton leaf worm); assay: Example B1: activity against Spodoptera littoralis, sprayed cotton leaf discs; assay type: in vivo; conditions: foliar, 72 h, application rate 200 ppm, L1 larvae, 3 days after infestation, read-out: control of Spodoptera littoralis (at least one of mortality, anti-feedant effect, growth inhibition)
Protocol: Example B1: Activity Against Spodoptera littoralis (Egyptian Cotton Leaf Worm)
Cotton leaf discs were placed on agar in 24-well microtiter plates and sprayed with aqueous test solutions prepared from 10′000 ppm DMSO stock solutions. After drying the leaf discs were infested with five L1 larvae. The samples were assessed for mortality, anti-feedant effect, and growth inhibition in comparison to untreated samples 3 days after infestation. Control of Spodoptera littoralis by a test sample is when at least one of mortality, anti-feedant effect, and growth inhibition is higher than the untreated sample.

[4] = test system: Aedes aegypti (yellow fever mosquito); assay: Example B11: activity against Aedes aegypti, dry deposits in tissue culture plates; assay type: in vivo; conditions: 200 ppm in ethanol, dry deposit, adult females, after 48 h and/or 24 h
Protocol: Example B11: Activity Against Aedes Aegypti (Yellow Fever Mosquito)
Test solutions, at an application rate of 200 ppm in ethanol, were applied to 12-well tissue culture plates. Once the deposits were dry, five, two to five days old adult female Aedes aegypti were added to each well, and sustained with a 10% sucrose solution in a cotton wool plug. Assessment of knockdown was made one hour after introduction, and mortality was assessed at 24 and 48 hours after introduction.

[5] = test system: Diabrotica balteata (corn root worm); assay: Example B4: activity against Diabrotica balteata, sprayed maize sprouts; assay type: in vivo; conditions: 96 h, application rate 200 ppm, L2 larvae, 4 days after infestation, read-out: effect in at least one of the two categories (mortality or growth inhibition)
Protocol: Example B4: Activity Against Diabrotica Balteata (Corn Root Worm)
as §1, with “Maize sprouts, placed on an agar layer in 24-well” for “24-well”, “plates” for “plates with artificial diet”, “spraying.” for “pipetting.”, “(6” for “(10”, “10” for “15”, “4” for “5”

[6] = test system: Euschistus heros (neotropical brown stink bug); assay: Example B9: activity against Euschistus heros, sprayed soybean leaf; assay type: in vivo; conditions: 120 h, application rate 200 ppm, N-2 nymphs, 5 days after infestation, read-out: effect in at least one of the two categories (mortality or growth inhibition)
Protocol: Example B9: Activity Against Euschistus heros(Neotropical Brown Stink Bug)
Soybean leaf on agar in 24-well microtiter plates were sprayed with aqueous test solutions prepared from 10′000 ppm DMSO stock solutions. After drying the leaf were infested with N-2 nymphs. The samples were assessed for mortality and growth inhibition in comparison to untreated samples 5 days after infestation.

[7] = test system: Spodoptera littoralis (Egyptian cotton leaf worm); assay: Example B2: activity against Spodoptera littoralis, systemic via lettuce grown on treated agar; assay type: in vivo; conditions: 144 h, test rate 12.5 ppm, in agar, uptake by lettuce roots, Spodoptera eggs, 6 days after infestation, read-out: effect in at least one of the three categories (mortality, anti-feedancy, or growth inhibition)
From the text: Example B2: Activity Against Spodoptera littoralis (Egyptian Cotton Leaf Worm)
Test compounds were applied by pipette from 10′000 ppm DMSO stock solutions into 24-well plates and mixed with agar. Lettuce seeds were placed on the agar and the multi well plate was closed by another plate which contains also agar. After 7 days the roots have absorbed the compound and the lettuce has grown into the lid plate. The lettuce leafs were now cut off into the lid plate. Spodoptera eggs were pipetted through a plastic stencil on a humid gel blotting paper and the plate closed with it.
The samples were assessed for mortality, anti-feedant effect and growth inhibition in comparison to untreated samples 6 days after infestation.

[8] = test system: Myzus persicae (green peach aphid); assay: Example B5: activity against Myzus persicae, sprayed sunflower leaf discs; assay type: in vivo; conditions: foliar, 144 h, application rate 200 ppm, aphid population of mixed ages, 6 days after infestation
Protocol: Example B5: Activity Against Myzus persicae (Green Peach Aphid)
Sunflower leaf discs were placed on agar in a 24-well microtiter plate and sprayed with aqueous test solutions prepared from 10′000 ppm DMSO stock solutions. After drying, the leaf discs were infested with an aphid population of mixed ages. The samples were assessed for mortality 6 days after infestation.

[9] = test system: Myzus persicae (green peach aphid); assay: Example B6: activity against Myzus persicae, roots of pea seedlings in test solution; assay type: in vivo; conditions: 144 h, test rate 24 ppm, roots of infested pea seedlings in test solution, 6 days
Protocol: Example B6: Activity Against Myzus persicae (Green Peach Aphid)
Roots of pea seedlings infested with an aphid population of mixed ages were placed directly in the aqueous test solutions prepared from 10′000 DMSO stock solutions. The samples were assessed for mortality 6 days after placing seedlings in test solutions.

[10] = test system: Tetranychus urticae (two-spotted spider mite); assay: Example B10: activity against Tetranychus urticae, sprayed bean leaf discs; assay type: in vivo; conditions: foliar, 192 h, application rate 200 ppm, mixed population (mobile stages), 8 days after infestation
Protocol: Example B10: Activity Against Tetranychus urticae (Two-Spotted Spider Mite)
Bean leaf discs on agar in 24-well microtiter plates were sprayed with aqueous test solutions prepared from 10′000 ppm DMSO stock solutions. After drying the leaf discs were infested with a mite population of mixed ages. The samples were assessed for mortality on mixed population (mobile stages) 8 days after infestation.

[11] = test system: Bemisia tabaci (cotton white fly); assay: Example B8: activity against Bemisia tabaci, sprayed cotton leaf discs; assay type: in vivo; conditions: foliar, 144 h, application rate 200 ppm, adult white flies, 6 days after incubation
Protocol: Example B8: Activity Against Bemisia tabaci (Cotton White Fly)
Cotton leaf discs were placed on agar in 24-well microtiter plates and sprayed with aqueous test solutions prepared from 10′000 ppm DMSO stock solutions. After drying the leaf discs were infested with adult white flies. The samples were checked for mortality 6 days after incubation.

SMILES: CCS(=O)(=O)c1cc(-c2ccc(C(F)(F)F)cc2)cnc1-c1ncc(-c2ccc(C(F)(F)F)nc2)n1C [Compound P1, 3-ethylsulfonyl-2-[1-methyl-5-[6-(trifluoromethyl)-3-pyridyl]imidazol-2-yl]-5-[4-(trifluoromethyl)phenyl]pyridine]
- percent effect (mortality or growth inhibition) at 200 ppm [1]: ≥ 80%
- mortality at 200 ppm [2]: ≥ 80%
- mortality at 200 ppm [3]: ≥ 80%
- pest or weed control at 200 ppm [4]: ≥ 80%
- percent effect (mortality or growth inhibition) at 200 ppm [5]: ≥ 80%
- percent effect (mortality or growth inhibition) at 200 ppm [6]: ≥ 80%

SMILES: CCS(=O)(=O)c1cc(-c2ncc(Cl)cn2)cnc1-c1ncc(-c2ccc(C(F)(F)F)nc2)n1C [Compound P11]
- percent effect (mortality or growth inhibition) at 200 ppm [1]: ≥ 80%
- mortality at 200 ppm [3]: ≥ 80%
- pest or weed control at 200 ppm [4]: ≥ 80%
- percent control (mortality, anti-feedancy or growth inhibition) at 12.5 ppm [7]: ≥ 80%
- mortality at 200 ppm [8]: ≥ 80%
- percent effect (mortality or growth inhibition) at 200 ppm [5]: ≥ 80%
- percent effect (mortality or growth inhibition) at 200 ppm [6]: ≥ 80%

SMILES: CCS(=O)(=O)c1cc(-c2ncccn2)cnc1-c1ncc(-c2cnc(C(F)(F)F)nc2)n1C [Compound P15]
- melting point: 231 to 233 °C

SMILES: CCS(=O)(=O)c1cc(-c2ncc(Cl)cn2)cnc1-c1ncc(-c2cnc(C(F)(F)F)nc2)n1C [Compound P14]
- melting point: 224 to 226 °C

SMILES: CCS(=O)(=O)c1cc(-c2cccc(F)c2)cnc1-c1ncc(-c2cnc(C(F)(F)F)nc2)n1C [Compound P17]
- melting point: 193 to 195 °C

SMILES: CCS(=O)(=O)c1cc(-c2ccc(Cl)cc2)cnc1-c1ncc(-c2ccc(SC(F)(F)F)cc2)n1C [Compound P7]
- percent effect (mortality or growth inhibition) at 200 ppm [1]: ≥ 80%
- mortality at 200 ppm [3]: ≥ 80%
- pest or weed control at 200 ppm [4]: ≥ 80%
- percent effect (mortality or growth inhibition) at 200 ppm [5]: ≥ 80%

SMILES: CCS(=O)(=O)c1cc(-c2ncccn2)cnc1-c1ncc(-c2ccc(C(F)(F)F)nc2)n1C [Compound P8]
- percent effect (mortality or growth inhibition) at 200 ppm [1]: ≥ 80%
- mortality at 200 ppm [2]: ≥ 80%
- mortality at 200 ppm [3]: ≥ 80%
- percent control (mortality, anti-feedancy or growth inhibition) at 12.5 ppm [7]: ≥ 80%
- mortality at 200 ppm [8]: ≥ 80%
- percent effect (mortality or growth inhibition) at 200 ppm [5]: ≥ 80%
- mortality at 24 ppm [9]: ≥ 80%
- percent effect (mortality or growth inhibition) at 200 ppm [6]: ≥ 80%

SMILES: CCS(=O)(=O)c1cc(-c2ccc(Cl)cc2)cnc1-c1ncc(-c2ccc(C(F)(F)F)nc2)n1C [Compound P5]
- percent effect (mortality or growth inhibition) at 200 ppm [1]: ≥ 80%
- mortality at 200 ppm [2]: ≥ 80%
- mortality at 200 ppm [3]: ≥ 80%
- pest or weed control at 200 ppm [4]: ≥ 80%
- mortality at 200 ppm [8]: ≥ 80%
- percent effect (mortality or growth inhibition) at 200 ppm [5]: ≥ 80%
- percent effect (mortality or growth inhibition) at 200 ppm [6]: ≥ 80%

SMILES: CCS(=O)(=O)c1cc(-c2ccc(F)cc2)cnc1-c1ncc(-c2ccc(C(F)(F)F)nc2)n1C [Compound P3, 3-ethylsulfonyl-5-(4-fluorophenyl)-2-[1-methyl-5-[6-(trifluoromethyl)-3-pyridyl]imidazol-2-yl]pyridine]
- percent effect (mortality or growth inhibition) at 200 ppm [1]: ≥ 80%
- mortality at 200 ppm [2]: ≥ 80%
- mortality at 200 ppm [10]: ≥ 80%
- mortality at 200 ppm [3]: ≥ 80%
- pest or weed control at 200 ppm [4]: ≥ 80%
- percent control (mortality, anti-feedancy or growth inhibition) at 12.5 ppm [7]: ≥ 80%
- mortality at 200 ppm [8]: ≥ 80%
- percent effect (mortality or growth inhibition) at 200 ppm [5]: ≥ 80%

SMILES: CCS(=O)(=O)c1cc(-c2ncccn2)cnc1-c1ncc(-c2cncc(C(F)(F)F)c2)n1C [Compound P10]
- percent effect (mortality or growth inhibition) at 200 ppm [1]: ≥ 80%
- mortality at 200 ppm [2]: ≥ 80%
- mortality at 200 ppm [3]: ≥ 80%
- percent control (mortality, anti-feedancy or growth inhibition) at 12.5 ppm [7]: ≥ 80%
- mortality at 200 ppm [8]: ≥ 80%
- percent effect (mortality or growth inhibition) at 200 ppm [5]: ≥ 80%
- mortality at 24 ppm [9]: ≥ 80%
- percent effect (mortality or growth inhibition) at 200 ppm [6]: ≥ 80%

SMILES: CCS(=O)(=O)c1cc(-c2ccc(Cl)cc2)cnc1-c1ncc(-c2ccc(C(F)(F)F)cc2)n1C [Compound P12]
- percent effect (mortality or growth inhibition) at 200 ppm [1]: ≥ 80%
- mortality at 200 ppm [2]: ≥ 80%
- mortality at 200 ppm [3]: ≥ 80%
- pest or weed control at 200 ppm [4]: ≥ 80%
- percent effect (mortality or growth inhibition) at 200 ppm [5]: ≥ 80%

SMILES: CCS(=O)(=O)c1cc(-c2ccc(F)cc2)cnc1-c1ncc(-c2ccc(F)cc2)n1C [Compound P4]
- mortality at 200 ppm [11]: ≥ 80%
- percent effect (mortality or growth inhibition) at 200 ppm [1]: ≥ 80%
- mortality at 200 ppm [3]: ≥ 80%
- percent control (mortality, anti-feedancy or growth inhibition) at 12.5 ppm [7]: ≥ 80%
- mortality at 200 ppm [8]: ≥ 80%
- percent effect (mortality or growth inhibition) at 200 ppm [5]: ≥ 80%

SMILES: CCS(=O)(=O)c1cc(-c2ccc(Cl)cc2)cnc1-c1ncc(-c2cccc(SC(F)(F)F)c2)n1C [Compound P13]
- percent effect (mortality or growth inhibition) at 200 ppm [1]: ≥ 80%
- mortality at 200 ppm [3]: ≥ 80%
- percent effect (mortality or growth inhibition) at 200 ppm [5]: ≥ 80%

SMILES: CCS(=O)(=O)c1cc(-c2ccc(Cl)cc2)cnc1-c1ncc(-c2ccc(S(=O)(=O)C(F)(F)F)cc2)n1C [Compound P9]
- percent effect (mortality or growth inhibition) at 200 ppm [1]: ≥ 80%
- mortality at 200 ppm [3]: ≥ 80%
- pest or weed control at 200 ppm [4]: ≥ 80%
- percent effect (mortality or growth inhibition) at 200 ppm [5]: ≥ 80%

SMILES: CCS(=O)(=O)c1cc(-c2ccc(C(F)(F)F)cc2)cnc1-c1ncc(-c2ccc(C(F)(F)F)cc2)n1C [Compound P2, 3-ethylsulfonyl-2-[1-methyl-5-[4-(trifluoromethyl)phenyl]imidazol-2-yl]-5-[4-(trifluoromethyl)phenyl]pyridine]
- percent effect (mortality or growth inhibition) at 200 ppm [1]: ≥ 80%
- mortality at 200 ppm [2]: ≥ 80%
- mortality at 200 ppm [3]: ≥ 80%
- pest or weed control at 200 ppm [4]: ≥ 80%
- percent effect (mortality or growth inhibition) at 200 ppm [5]: ≥ 80%

SMILES: CCS(=O)(=O)c1cc(-c2cccc(F)c2)cnc1-c1ncc(-c2ccc(C(F)(F)F)nc2)n1C [Compound P16]
- melting point: 170 to 172 °C

SMILES: CCS(=O)(=O)c1cc(-c2ccccc2)cnc1-c1ncc(-c2ccc(C(F)(F)F)nc2)n1C [Compound P6]
- percent effect (mortality or growth inhibition) at 200 ppm [1]: ≥ 80%
- mortality at 200 ppm [2]: ≥ 80%
- mortality at 200 ppm [3]: ≥ 80%
- percent control (mortality, anti-feedancy or growth inhibition) at 12.5 ppm [7]: ≥ 80%
- mortality at 200 ppm [8]: ≥ 80%
- percent effect (mortality or growth inhibition) at 200 ppm [5]: ≥ 80%

SMILES: CCS(=O)(=O)c1cc(-c2cccc(F)c2)cnc1-c1ncc(-c2cncc(C(F)(F)F)c2)n1C [Compound P18]
- melting point: 155 to 157 °C
